Test results published in article PMC6949113, “Preclinical evaluation of AT-527, a novel guanosine nucleotide prodrug with potent, pan-genotypic activity against hepatitis C virus” (PLoS ONE, 2020).
Read-outs that look alike come from different tables or passages of the source.

How the values were obtained:
[1] = Intracellular metabolism in monkey hepatocytes; format: in vitro ADME, cynomolgus monkey
Procedure: Hepatocytes. […] Cryopreserved male mouse (CD1), and fresh male Beagle dog and male cynomolgus monkey hepatocytes were obtained from BioreclamationIVT (Baltimore, MD) and were similarly plated with Matrigel in 6- or 24-well plates and maintained overnight in InVitroGRO™HI medium with Torpedo™ antibiotic (BioreclamationIVT). The protocol described above for measuring AT-511 and its metabolites in Huh-7 cells was repeated with the five different hepatocytes. Untreated cells were collected at 24 h, and the protein content of the cell lysates were determined using a bicinchoninic acid protein assay kit to assess the number of cells in each incubation. Separately, plated human hepatocytes were incubated for 6 h with 100 μM AT-511, followed by washout periods of 0, 2, 6, 18 and 30 h.
S3 Protocol. LC-MS/MS analysis of AT-511 and metabolites in cultured cells. The supernatant extracts of each hepatocyte and Huh-7 cell incubation were separately analyzed by four different LC-MS/MS methods for quantitation of phosphoramidates, nucleosides, monophosphates, and triphosphates (methods 1, 2, 3 and 4, respectively), using synthetic reference standards of actually and potentially present compounds and using structurally related analogs as internal standards. […]

Monkey PK study, plasma = format: in vivo, cynomolgus monkey; details: for plasma concentration, individual monkeys: AT-527 30 mg/kg oral, monkeys 1-3, BQL: <0.0017 AT-511, <0.0032 AT-273; for plasma concentration: male cynomolgus monkeys; for Cmax / MRT last / Tmax / AUC(0-t): male, cynomolgus, cynomolgus monkey; for AUC(0-t): read-out: AUC0-last
Text: Monkey PK study. Male non-naïve cynomolgus monkeys were obtained from Hainan Jingang Laboratory Animal Co., Ltd. (Hainan, China), group housed during the 5-day acclimation period or individually housed during the study in stainless steel mesh cages, provided ad libitum access to RO water, fed twice daily (~120 g Certified Monkey Diet daily; Beijing Vital Keao Feed Co., Ltd., Beijing, China) and given daily treats of fresh fruit. Additional environmental enrichment included classical music and cartoons. Three groups of 5 monkeys each were administered 30, 100 or 300 mg/kg AT-527 as a powder filled in empty porcine hard gelatin capsules (size 0). The monkeys were fasted overnight prior to dosing and fed 4 h after dosing. Three dosages were selected to provide assessments of dose proportionality, the top two representing potential doses for a repeated oral dose toxicity study in monkeys, and the lowest predicted to be more therapeutically relevant. A pill gun was used to place the capsule beyond the root of the animals’ tongues and their mouths were held loosely closed for approximately 30 sec to allow them to move the jaw and swallow the capsule. Immediately following capsule administration, 20 mL of water was given by mouth and then the mouth was opened to ensure the capsule was swallowed. Blood samples (~0.6 mL) were collected up to 72 h from three animals per dose group, and up to 4 h from the remaining two animals in each group, at the same time points described for rats. […] Blood samples were collected with a syringe from a peripheral blood vessel from restrained, non-sedated animals, immediately transferred to pre-chilled tubes containing ~1 mg K2EDTA•2H20 and 20 μL of 5 mM dichlorvos solution, mixed and placed on ice until plasma was prepared by centrifugation as described for rats. Immediately after centrifugation, plasma samples were extracted with 4 volumes ISS2, and the supernatants were clarified by centrifugation (12,000 rpm, 10 min, 4°C) and stored at ≤ -60°C until analyzed by LC-MS/MS as described below. After the 4-hr blood collection, two monkeys per dose group were anesthetized with intravenous injection of pentobarbital sodium (60 mg/kg) and then euthanized as described for rats. […] All analytes were quantitated by LC-MS/MS as described below.
LC-MS/MS analysis of rat and monkey plasma and tissue homogenate supernatants. For the analysis of AT-511 in rat plasma, aliquots were extracted with 10 volumes ISS2. The supernatants were clarified by centrifugation (4000 rpm for 10 min at 4°C) and 3 μL samples were injected onto an Acuity BEH C18 1.7 μm, 2.1 × 50 mm column and a Sciex API 4000 mass spectrometer (ESI positive ion, MRM mode). Mobile phases A (0.025% formic acid (FA) and 1 mM ammonium acetate (AA) in 5% ACN in water) and B (0.025% FA and 1 mM AA in 95% ACN in water) were used to elute samples (3 μL) at 0.6 mL/min with 10% B for 0.3 min followed by linear gradients to 60% B over 0.6 min and to 90% B over 0.2 min, and ending with 90% B for 0.4 min.
PK data analysis. […] The linear/log trapezoidal rule was applied in obtaining the PK parameters.

C[C@@]1(F)[C@H](O)[C@@H](COP(=O)(O)OP(=O)(O)OP(=O)(O)O)O[C@H]1n1cnc2c(=O)[nH]c(N)nc21 [AT-9010]
AUC0-24, intracellular ([1]; 10 μM AT-511): 195 pmol*h/10^6 cells
Cmax, intracellular ([1]; 10 μM AT-511, 0-24 h): 10.4 ± 0.2 pmol/10^6 cells

C[C@@]1(F)[C@H](O)[C@@H](CO)O[C@H]1n1cnc2c(=O)[nH]c(N)nc21 [AT-273]
plasma concentration, individual monkeys (Monkey PK study, plasma; 0.500 h): BQL
plasma concentration, individual monkeys (Monkey PK study, plasma; 1.00 h): BQL
plasma concentration (Monkey PK study, plasma; single oral AT-527 100 mg/kg, 0.500 h, monkey 1): BQL
plasma concentration (Monkey PK study, plasma; single oral AT-527 100 mg/kg, 0.500 h, monkey 2): BQL
plasma concentration (Monkey PK study, plasma; single oral AT-527 300 mg/kg, 0.500 h, monkey 1): BQL
plasma concentration (Monkey PK study, plasma; single oral AT-527 300 mg/kg, 0.500 h, monkey 2): BQL
plasma concentration (Monkey PK study, plasma; single oral AT-527 300 mg/kg, 0.500 h, monkey 3): BQL
plasma concentration (Monkey PK study, plasma; single oral AT-527 300 mg/kg, 1.00 h, monkey 1): BQL
plasma concentration (Monkey PK study, plasma; single oral AT-527 300 mg/kg, 1.00 h, monkey 2): BQL
plasma concentration (Monkey PK study, plasma; single oral AT-527 300 mg/kg, 1.00 h, monkey 3): BQL
plasma concentration (Monkey PK study, plasma; single oral AT-527 300 mg/kg, 72.0 h, monkey 3): BQL
Cmax (Monkey PK study, plasma; in vivo, po, 30 mg/kg): 140 ± 10 nM
MRT last (Monkey PK study, plasma; in vivo, po, 30 mg/kg): 26.9 ± 1.9 h
Tmax (Monkey PK study, plasma; in vivo, po, 30 mg/kg): 16 ± 6.9 h
MRT last (Monkey PK study, plasma; in vivo, po, 100 mg/kg): 23.7 ± 3.8 h
MRT last (Monkey PK study, plasma; in vivo, po, 300 mg/kg): 27.9 ± 8.1 h
Tmax (Monkey PK study, plasma; in vivo, po, 300 mg/kg): 17.3 ± 11.5 h
AUC(0-t) (Monkey PK study, plasma; monkey plasma, single oral AT-527 30 mg/kg): 5.42 ± 1.03 µM·h
AUC(0-t) (Monkey PK study, plasma; monkey plasma, single oral AT-527 100 mg/kg): 10.1 ± 2.6 µM·h
Cmax (Monkey PK study, plasma; monkey plasma, single oral AT-527 100 mg/kg, read-out: Cmax): 440 ± 170 nM
AUC(0-t) (Monkey PK study, plasma; monkey plasma, single oral AT-527 300 mg/kg): 12.2 ± 6.1 µM·h
Cmax (Monkey PK study, plasma; monkey plasma, single oral AT-527 300 mg/kg, read-out: Cmax): 310 ± 50 nM
